{
  "source": "patent US9399636B2",
  "about": "“Substituted dipyridylamines and uses thereof” (Genentech, Inc., priority 2012, dated 2016)",
  "note": "pKi: −log10 of the molar value.",
  "data": [
    {"biological_target": "T1, DLK (Homo sapiens, UniProt Q12852)", "T1 construct": "N-terminally GST-tagged DLK (catalytic domain amino acid 1-520) (Carna Bioscience); GST (N); purchased Carna Bioscience", "T1 sequence (Q12852 1-520)": "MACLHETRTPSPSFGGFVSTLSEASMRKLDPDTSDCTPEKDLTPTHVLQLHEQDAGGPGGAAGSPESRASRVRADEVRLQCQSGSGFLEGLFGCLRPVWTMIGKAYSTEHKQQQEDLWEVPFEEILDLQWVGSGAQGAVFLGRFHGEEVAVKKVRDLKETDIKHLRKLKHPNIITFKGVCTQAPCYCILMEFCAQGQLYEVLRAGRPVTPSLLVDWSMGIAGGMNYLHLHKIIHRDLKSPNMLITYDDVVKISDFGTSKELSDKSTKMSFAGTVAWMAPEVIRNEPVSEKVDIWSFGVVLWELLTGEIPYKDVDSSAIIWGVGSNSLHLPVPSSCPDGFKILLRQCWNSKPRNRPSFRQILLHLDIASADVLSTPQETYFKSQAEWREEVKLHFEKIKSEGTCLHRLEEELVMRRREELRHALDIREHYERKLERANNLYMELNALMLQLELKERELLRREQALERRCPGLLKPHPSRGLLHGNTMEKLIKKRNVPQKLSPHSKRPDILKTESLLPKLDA", "experiment": "DLK TR-FRET assay", "type": "biochemical", "settings": "5 nM GST-tagged DLK (catalytic domain amino acid 1-520), 40 nM HIS-tagged MKK4 K131M substrate, 30 μM ATP, 60 minutes", "protocol": "DLK TR-FRET assay: DLK kinase reactions (20 μL) containing 5 nM N-terminally GST-tagged DLK (catalytic domain amino acid 1-520) (Carna Bioscience), 40 nM N-terminally HIS-tagged MKK4 K131M substrate, and 30 μM ATP in kinase reaction buffer (50 mM HEPES, pH 7.5, 0.01% Triton X-100, 0.01% Bovine γ-Globulins, 2 mM DTT, 10 mM MgCl2 and 1 mM EGTA), and testing compound 1:3 serial diluted starting at 20 uM were incubated at ambient temperature for 60 minutes in 384 well OptiPlate (Perkin Elmer). To quench kinase reactions and detect phosphorylated MKK4, 15 μL of TR-FRET antibody mixture containing 2 nM anti-phosphorylated MKK4 labeled with Europium cryptate (Cisbio) and 23 nM anti-HIS labeled with D2 (Cisbio) in detection buffer (25 mM Tris pH 7.5, 100 mM NaCl, 100 mM EDTA, 0.01% Tween-20, and 200 mM KF) was added to the reaction mixture. The detection mixture was incubated for 3 hours at ambient temperature and the TR-FRET was detected with an EnVision multilabel plate reader (Perkin-Elmer) using the LANCE/DELFIA Dual Enh label from Perkin-Elmer (excitation filter: UV2 (TRF) 320 and emission filters: APC 665 and Europium 615).", "values": [
      {"smiles": "CN1CCC(C#N)(c2cc(Nc3cc(C#N)ccn3)nc(N3CC4CC4C3)c2)CC1", "note": "(centres unmarked) [Example 36, 6′-(3-Aza-bicyclo[3.1.0]hex-3-yl)-2′-(4-cyano-pyridin-2-ylamino)-1-methyl-2,3,5,6-tetrahydro-1H-[4,4′]bipyridinyl-4-carbonitrile]", "pKi": 9.77},
      {"smiles": "CC(=O)N1CCC(c2cc(Nc3cc(C)ccn3)nc(-c3cnn(C)c3)c2)CC1", "note": "[Example 134, 1-[2′-(1-Methyl-1H-pyrazol-4-yl)-6′-(4-methyl-pyridin-2-ylamino)-3,4,5,6-tetrahydro-2H-[4,4′]bipyridinyl-1-yl]-ethanone]", "pKi": 7.52},
      {"smiles": "N#Cc1ccnc(Nc2cc(C3CN(CC(F)(F)F)C3)cc(Cl)n2)c1", "note": "[Example 32, 2-{6-Chloro-4-[1-(2,2,2-trifluoro-ethyl)-azetidin-3-yl]-pyridin-2-ylamino}-isonicotinonitrile]", "pKi": 6.66},
      {"smiles": "COC1CN(c2cc(C3CCN(C4COC4)CC3)cc(Nc3cc(C#N)ccn3)n2)C1", "note": "[Example 96, 2-[6-(3-Methoxy-azetidin-1-yl)-1′-oxetan-3-yl-1′,2′,3′,4′,5′,6′-hexahydro-[4,4′]bipyridinyl-2-ylamino]-isonicotinonitrile]", "pKi": 7.74},
      {"smiles": "Cc1ccnc(Nc2cc(C3CCNCC3)cc(N(C)CCO)n2)c1", "note": "[Example 144, 2-{Methyl-[6-(4-methyl-pyridin-2-ylamino)-1′,2′,3′,4′,5′,6′-hexahydro-[4,4′]bipyridinyl-2-yl]-amino}-ethanol]", "pKi": 7.21},
      {"smiles": "CC(=O)N1CCC(c2cc(Nc3cc(C(F)(F)F)ccn3)nc(N3CCC(F)(F)C3)c2)CC1", "note": "[Example 143, 1-[2′-(3,3-Difluoro-pyrrolidin-1-yl)-6′-(4-trifluoromethyl-pyridin-2-ylamino)-3,4,5,6-tetrahydro-2H-[4,4′]bipyridinyl-1-yl]-ethanone]", "pKi": 8.92},
      {"smiles": "FC(F)c1ccnc(Nc2cc(C3CCN(C4COC4)CC3)cc(N3CCC3)n2)c1", "note": "[Example 51, (6-Azetidin-1-yl-1′-oxetan-3-yl-1′,2′,3′,4′,5′,6′-hexahydro-[4,4′]bipyridinyl-2-yl)-(4-difluoromethyl-pyridin-2-yl)-amine]", "pKi": 8.62},
      {"smiles": "Cc1ccnc(Nc2cc(C3CCN(C4COC4)CC3)cc(N3CCC[C@H]3C)n2)c1", "note": "[Example 135, (4-Methyl-pyridin-2-yl)-[6-((R)-2-methyl-pyrrolidin-1-yl)-1′-oxetan-3-yl-1′,2′,3′,4′,5′,6′-hexahydro-[4,4′]bipyridinyl-2-yl]-amine]", "pKi": 7.68},
      {"smiles": "C[C@@H]1CCCN1c1cc(C2(C#N)CCN(C)CC2)cc(Nc2cc(C#N)ccn2)n1", "note": "[Example 33, 2′-(4-Cyano-pyridin-2-ylamino)-1-methyl-6′-((R)-2-methyl-pyrrolidin-1-yl)-2,3,5,6-tetrahydro-1H-[4,4′]bipyridinyl-4-carbonitrile]", "pKi": 9.77},
      {"smiles": "N#Cc1ccnc(Nc2cc(C3CCN(C4COC4)CC3)ccn2)c1", "note": "[Example 124, 2-(1′-Oxetan-3-yl-1′,2′,3′,4′,5′,6′-hexahydro-[4,4′]bipyridinyl-2-ylamino)-isonicotinonitrile]", "pKi": 6.15},
      {"smiles": "N#Cc1ccnc(Nc2cc(C3(C#N)CCNCC3)cc(N3CC(F)C3)n2)c1", "note": "[Example 34, 2′-(4-Cyano-pyridin-2-ylamino)-6′-(3-fluoro-azetidin-1-yl)-2,3,5,6-tetrahydro-1H-[4,4′]bipyridinyl-4-carbonitrile]", "pKi": 8.72},
      {"smiles": "N#Cc1ccnc(Nc2cc(C3CCN(C4COC4)CC3)cc(N3CCC4(CCOC4)C3)n2)c1", "note": "(centres unmarked) [Example 95, 2-[6-(2-Oxa-7-aza-spiro[4.4]non-7-yl)-1′-oxetan-3-yl-1′,2′,3′,4′,5′,6′-hexahydro-[4,4′]bipyridinyl-2-ylamino]-isonicotinonitrile]", "pKi": 8.14},
      {"smiles": "N#Cc1ccnc(Nc2cc(C3CCN(C4COC4)CC3)cc(N3CC4CC(F)(F)C4C3)n2)c1", "note": "(centres unmarked) [Example 97, 2-[6-(6,6-Difluoro-3-aza-bicyclo[3.2.0]hept-3-yl)-1′-oxetan-3-yl-1′,2′,3′,4′,5′,6′-hexahydro-[4,4′]bipyridinyl-2-ylamino]-isonicotinonitrile]", "pKi": 9.22},
      {"smiles": "CC(=O)N1CC(c2cc(Nc3cc(C(F)(F)F)ccn3)nc(N3CCC(F)(F)C3)c2)C1", "note": "[Example 127, 1-{3-[2-(3,3-Difluoro-pyrrolidin-1-yl)-6-(4-trifluoromethyl-pyridin-2-ylamino)-pyridin-4-yl]-azetidin-1-yl}-ethanone]", "pKi": 8.54},
      {"smiles": "Cn1cc(-c2cc(C3CCOCC3)cc(Nc3cc(C(F)(F)F)ccn3)n2)cn1", "note": "[Example 122, [6-(1-Methyl-1H-pyrazol-4-yl)-4-(tetrahydro-pyran-4-yl)-pyridin-2-yl]-(4-trifluoromethyl-pyridin-2-yl)-amine]", "pKi": 9.40},
      {"smiles": "N#Cc1ccnc(Nc2cc(C3CCOCC3)cc(N3CCC4(CCOC4)C3)n2)c1", "note": "(centres unmarked) [Example 85, 2-[6-(2-Oxa-7-aza-spiro[4.4]non-7-yl)-4-(tetrahydro-pyran-4-yl)-pyridin-2-ylamino]-isonicotinonitrile]", "pKi": 7.82},
      {"smiles": "N#Cc1ccnc(Nc2cc(C3CCOCC3)cc(N3CC4CC4C3)n2)c1", "note": "(centres unmarked) [Example 84, 2-[6-(3-Aza-bicyclo[3.1.0]hex-3-yl)-4-(tetrahydro-pyran-4-yl)-pyridin-2-ylamino]-isonicotinonitrile]", "pKi": 8.80},
      {"smiles": "Cc1cc(C2CCN(C3COC3)CC2)cc(Nc2cc(C(F)F)ccn2)n1", "note": "[Example 27, (4-Difluoromethyl-pyridin-2-yl)-(6-methyl-1′-oxetan-3-yl-1′,2′,3′,4′,5′,6′-hexahydro-[4,4′]bipyridinyl-2-yl)-amine]", "pKi": 7.00},
      {"smiles": "CC(=O)N1CCC(c2cc(Nc3cc(C#N)ccn3)nc(N3CCC[C@H]3C)c2)CC1", "note": "[Example 119, 2-[1′-Acetyl-6-((R)-2-methyl-pyrrolidin-1-yl)-1′,2′,3′,4′,5′,6′-hexahydro-[4,4′]bipyridinyl-2-ylamino]-isonicotinonitrile]", "pKi": 9.70},
      {"smiles": "N#Cc1ccnc(Nc2cc(C3CCN(C4COC4)CC3)cc(Cl)n2)c1", "note": "[Example 106, 2-(6-Chloro-1′-oxetan-3-yl-1′,2′,3′,4′,5′,6′-hexahydro-[4,4′]bipyridinyl-2-ylamino)-isonicotinonitrile]", "pKi": 8.00},
      {"smiles": "CC(=O)N1CCC(c2cc(Cl)nc(Nc3cc(C#N)ccn3)c2)CC1", "note": "[Example 65, 2-(1′-Acetyl-6-chloro-1′,2′,3′,4′,5′,6′-hexahydro-[4,4′]bipyridinyl-2-ylamino)-isonicotinonitrile]", "pKi": 7.52},
      {"smiles": "C[C@@H]1CCCN1c1cc(C2CCOCC2)cc(Nc2cc(C#N)ccn2)n1", "note": "[Example 123, 2-[6-((R)-2-Methyl-pyrrolidin-1-yl)-4-(tetrahydro-pyran-4-yl)-pyridin-2-ylamino]-isonicotinonitrile]", "pKi": 9.70},
      {"smiles": "FC(F)(F)c1ccnc(Nc2cc(C3CCN(C4COC4)CC3)ccn2)c1", "note": "[Example 120, (1′-Oxetan-3-yl-1′,2′,3′,4′,5′,6′-hexahydro-[4,4′]bipyridinyl-2-yl)-(4-trifluoromethyl-pyridin-2-yl)-amine]", "pKi": 6.77},
      {"smiles": "Cc1cc(C2CCOCC2)cc(Nc2cc(C#N)ccn2)n1", "note": "[Example 80, 2-[6-Methyl-4-(tetrahydro-pyran-4-yl)-pyridin-2-ylamino]-isonicotinonitrile]", "pKi": 7.24},
      {"smiles": "N#Cc1ccnc(Nc2cc(C3(C#N)CCOCC3)cc(C3CC3)n2)c1", "note": "[Example 63, 2-[4-(4-Cyano-tetrahydro-pyran-4-yl)-6-cyclopropyl-pyridin-2-ylamino]-isonicotinonitrile]", "pKi": 8.07},
      {"smiles": "C[C@@H]1CCCN1c1cc(C2CCOCC2)cc(Nc2cc(C(F)(F)F)ccn2)n1", "note": "[Example 125, [6-((R)-2-Methyl-pyrrolidin-1-yl)-4-(tetrahydro-pyran-4-yl)-pyridin-2-yl]-(4-trifluoromethyl-pyridin-2-yl)-amine]", "pKi": 8.51},
      {"smiles": "CC(=O)N1CCC(c2cc(Nc3cc(C#N)ccn3)nc(OC(C)C)c2)CC1", "note": "[Example 22, 2-(1′-Acetyl-6-isopropoxy-1′,2′,3′,4′,5′,6′-hexahydro-[4,4′]bipyridinyl-2-ylamino)-isonicotinonitrile]", "pKi": 8.66},
      {"smiles": "N#Cc1ccnc(Nc2cc(C3CCN(C4COC4)CC3)cc(N3CCCC3=O)n2)c1", "note": "[Example 79, 2-[1′-Oxetan-3-yl-6-(2-oxo-pyrrolidin-1-yl)-1′,2′,3′,4′,5′,6′-hexahydro-[4,4′]bipyridinyl-2-ylamino]-isonicotinonitrile]", "pKi": 7.46},
      {"smiles": "CC(=O)N1CCC(c2cc(Nc3cc(C(F)(F)F)ccn3)nc(N3CCC[C@H]3C)c2)CC1", "note": "[Example 141, 1-[2′-((R)-2-Methyl-pyrrolidin-1-yl)-6′-(4-trifluoromethyl-pyridin-2-ylamino)-3,4,5,6-tetrahydro-2H-[4,4′]bipyridinyl-1-yl]-ethanone]", "pKi": 8.70}
    ]}
  ]
}
